Values quoted from earlier work in patent US6927272B2, “Electronic component-use material and electronic component using it” (Matsushita Electric Industrial Co., Ltd., priority 2001, dated 2005).
Where two headings read alike, the source gives them in different places.

Settings: room temperature (20-30° C.)

Row | Structure (SMILES) | Vapor Pressure | Vapor Pressure (cis-form) | Vapor Pressure (trans-form) [nPa]
1 | CC(C)=CC1C(C(=O)OCc2coc(Cc3ccccc3)c2)C1(C)C (stereo not drawn) [resmethrin] | 1,500 nPa | – | –
2 | CC1(C)C(C=C(Cl)Cl)C1C(=O)OCc1cccc(Oc2ccccc2)c1 (stereo not drawn) [permethrin] | 45,000 nPa | – | –
3 | CC1(C)C(/C=C(\Cl)C(F)(F)F)C1C(=O)OC(C#N)c1cccc(Oc2ccccc2)c1 (stereo not drawn) [λ-cyhalothrin] | 200 nPa | – | –
4 | CC(C)[C@H](C(=O)OC(C#N)c1cccc(Oc2ccccc2)c1)c1ccc(OC(F)F)cc1 (stereo partly drawn) [flucythrinate] | 1,200 nPa | – | –
5 | CC(C)=CC1C(C(=O)OC(C#N)c2cccc(Oc3ccccc3)c2)C1(C)C (stereo not drawn) [cyphenothrin] | 400,000 nPa | – | –
6 | CC1(C)C(C=C(Cl)Cl)C1C(=O)OC(C#N)c1cccc(Oc2ccccc2)c1 (stereo not drawn) [cypermethrin] | 230 nPa | – | –
7 | Cc1c(F)c(F)c(COC(=O)[C@@H]2[C@H](/C=C(\Cl)C(F)(F)F)C2(C)C)c(F)c1F (racemic) [tefluthrin] | 80,000,000 nPa | – | –
8 | CC1(C)[C@H](C(=O)O[C@H](C#N)c2cccc(Oc3ccccc3)c2)[C@@H]1C(Br)C(Br)(Br)Br (stereo partly drawn) [tralomethrin] | 0.017 nPa | – | –
9 | CC(C)C(C(=O)OC(C#N)c1cccc(Oc2ccccc2)c1)c1ccc(Cl)cc1 (stereo not drawn) [fenvalerate] | 37,000 nPa | – | –
10 | CC1(C)[C@H](C(=O)O[C@H](C#N)c2cccc(Oc3ccccc3)c2)[C@@H]1/C=C\C(=O)OC(C(F)(F)F)C(F)(F)F [acrinathrin] | 390 nPa | – | –
11 | CC(C)=CC1C(C(=O)OCN2C(=O)C3=C(CCCC3)C2=O)C1(C)C (stereo not drawn) [d-tetramethrin] | 320,000 nPa | – | –
12 | CCOc1ccc([Si](C)(C)CCCc2ccc(F)c(Oc3ccccc3)c2)cc1 [silafluofen] | 731,500 nPa | – | –
13 | CC1(C)[C@H](C(=O)O[C@H](C#N)c2cccc(Oc3ccccc3)c2)[C@@H]1C=C(Br)Br [deltamethrin] | 2,000 nPa | – | –
14 | CC(C)[C@@H](Nc1ccc(C(F)(F)F)cc1Cl)C(=O)OC(C#N)c1cccc(Oc2ccccc2)c1 (stereo partly drawn) [τ-fulvalinate] | 13,000 nPa | – | –
15 | CC1(C)C(C=C(Cl)Cl)C1C(=O)OC(C#N)c1ccc(F)c(Oc2ccccc2)c1 (stereo not drawn) [β-cyfluthrin] | – | cis-form 10/ nPa | 90
16 | Cc1c(COC(=O)[C@@H]2[C@H](/C=C(\Cl)C(F)(F)F)C2(C)C)cccc1-c1ccccc1 (racemic) [bifenthrin] | 24,000 nPa | – | –
17 | CC(C)=CC1C(C(=O)OCc2cccc(Oc3ccccc3)c2)C1(C)C (stereo not drawn) [phenothrin] | 160,000 nPa | – | –
